Key:
IL-6R [1] = molecular target: T1, IL-6R (Homo sapiens, UniProt P08887); settings: cited from earlier work
T1 construct: host or cells: population pharmacokinetic models of patients (Frey et al. 2010; Gibiansky and Frey 2012)
T1 sequence (P08887 20-468): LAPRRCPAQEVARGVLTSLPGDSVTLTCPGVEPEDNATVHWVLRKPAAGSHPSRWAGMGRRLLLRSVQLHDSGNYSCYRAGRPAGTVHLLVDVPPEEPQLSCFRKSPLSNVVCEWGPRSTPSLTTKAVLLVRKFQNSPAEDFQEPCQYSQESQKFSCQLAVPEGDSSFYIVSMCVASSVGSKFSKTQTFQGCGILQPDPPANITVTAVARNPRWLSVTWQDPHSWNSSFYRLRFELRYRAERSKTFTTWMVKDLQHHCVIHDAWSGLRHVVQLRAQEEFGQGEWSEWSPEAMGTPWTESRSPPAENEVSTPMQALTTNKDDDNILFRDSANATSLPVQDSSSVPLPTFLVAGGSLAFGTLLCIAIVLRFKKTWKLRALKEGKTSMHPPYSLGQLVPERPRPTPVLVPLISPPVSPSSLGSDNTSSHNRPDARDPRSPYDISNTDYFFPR

[2] = tested on: patients who manifested CRS after ERY974 administration; experiment: ERY101EG study: use of Tocilizumab for the treatment of CRS; type: in vivo, human
Method: In the ERY101EG study, Tocilizumab was used alone or in combination with a steroid and such for the treatment of CRS in some patients at the discretion of the clinical trial investigator (Table 11). The severity of CRS ranged from Grade 1 to Grade 3. Tocilizumab was administered on the same day as the manifestation of CRS, with the exception of two patients, two cases (cohort 10A, 840010006, 840010007). In all of the Tocilizumab-administered cases, CRS recovered four days after the day of Tocilizumab administration.

IL-6R [3] = molecular target: T1, IL-6R; experiment: Population pharmacokinetic model: Michaelis coefficient (Km) for target-mediated elimination of Tocilizumab; settings: theoretical, from the Km value of Frey et al.
[4] = Simulation of serum Tocilizumab concentration with population pharmacokinetic models (Frey et al.; Gibiansky et al.); settings: set from the Frey and Gibiansky models
Method: (§1) FIG. 5A is a simulation of changes in serum Tocilizumab concentration when Tocilizumab is administered at 8 mg/kg (intravenous administration: IV) on Day 0, based on the population pharmacokinetic model reported in the article by Frey et al. The vertical axis represents the serum Tocilizumab concentration (μg/mL), and the horizontal axis represents the number of days after administration of Tocilizumab.
as §1, with “5B” for “5A”, “(IV)” for “(intravenous administration: IV)”, “Gibiansky” for “Frey”
FIG. 6A is a simulation of changes in serum Tocilizumab concentration when Tocilizumab is intravenously administered (IV) at 8 mg/kg on Day 0, based on the population pharmacokinetic model reported in the article by Frey et al. The vertical axis represents the serum Tocilizumab concentration (μg/mL), and the horizontal axis represents the number of days after administration of Tocilizumab. […]

In the case of “Tocilizumab: humanized immunoglobulin G1 (IgG1) kappa anti-human IL-6R monoclonal antibody”, the “Michaelis coefficient (Km) for target-mediated elimination” value (IL-6R [1]; article by Frey et al., patients with rheumatoid arthritis) is given as 2.7 µg/mL, the “Michaelis coefficient (Km value)” value (IL-6R [1]; article by Gibiansky et al.) is given as 0.367 µg/mL and the “Recovery from CRS after the day of Tocilizumab administration” value ([2]; all Tocilizumab-administered cases, CRS Grade 1 to Grade 3, alone or with a steroid) is given as “four”. The “Duration from Tocilizumab administration to recovery from CRS” value (from here on “Duration from Tocilizumab administration”) ([2]; patient 840010006, cohort 10A, CRS Grade 3 after 2nd ERY974 (0.81 μg/kg), Tocilizumab 8 mg/kg, 3 days after CRS manifestation) was 4 days, the “Duration from Tocilizumab administration” value ([2]; patient 840010006, cohort 10A, CRS Grade 3 after 3rd ERY974 (0.54 μg/kg), Tocilizumab 8 mg/kg, same day as CRS manifestation) was 3 days and the “Manifestation of CRS after Tocilizumab administration and until the next administration of this agent” value (“Manifestation of CRS” for short) ([2]; patient 840010006, cohort 10A, after 2nd ERY974 (0.81 μg/kg), Tocilizumab 8 mg/kg) was “None”. For the same substance, the “Presence or absence of CRS recurrence” value ([2]; patient 840010006, cohort 10A, 1 further ERY974 administration (0.54 μg/kg) after Tocilizumab 8 mg/kg) was “Present”, the “Duration from Tocilizumab administration” value ([2]; patient 840010007, cohort 10A, CRS Grade 2, Tocilizumab 8 mg/kg, 6 days after CRS manifestation) was 1 days and the “Presence or absence of CRS recurrence” value ([2]; patient 840010007, cohort 10A, 2 further ERY974 administrations (0.54, 0.81 μg/kg) after Tocilizumab 8 mg/kg) was “Absent”. For the same substance, the “Manifestation of CRS” value ([2]; patient 840010007, cohort 10A, Tocilizumab 8 mg/kg) was “None”, the “Duration from Tocilizumab administration” value ([2]; patient 840020017, cohort 8A, CRS Grade 2, Tocilizumab dose not known, same day as CRS manifestation) was 0 days and the “Presence or absence of CRS recurrence” value ([2]; patient 840020017, cohort 8A, 3 further ERY974 administrations (0.36 μg/kg) after Tocilizumab) was “Absent”. For the same substance, the “Manifestation of CRS” value ([2]; patient 840020017, cohort 8A, Tocilizumab dose not known) was “None”, the “Duration from Tocilizumab administration” value ([2]; patient 840020021, cohort 9A, CRS Grade 1, Tocilizumab 4 mg/kg, same day as CRS manifestation) was 0 days and the “Presence or absence of CRS recurrence” value ([2]; patient 840020021, cohort 9A, 9 further ERY974 administrations (0.54 μg/kg) after Tocilizumab 4 mg/kg) was “Absent”. The “Manifestation of CRS” value ([2]; patient 840020021, cohort 9A, Tocilizumab 4 mg/kg) was “None”, the “Duration from Tocilizumab administration” value ([2]; patient 840020022, cohort 9A, CRS Grade 2, Tocilizumab 4 mg/kg, within 2 hours from CRS manifestation) was 0 days and the “Presence or absence of CRS recurrence” value ([2]; patient 840020022, cohort 9A, 3 further ERY974 administrations (0.54 μg/kg) after Tocilizumab 4 mg/kg) was “Absent”. The “Manifestation of CRS” value ([2]; patient 840020022, cohort 9A, Tocilizumab 4 mg/kg) was “None”, the “Duration from Tocilizumab administration” value ([2]; patient 840020023, cohort 9B, CRS Grade 2, Tocilizumab 4 mg/kg, same day as CRS manifestation) was 0 days and the “Presence or absence of CRS recurrence” value ([2]; patient 840020023, cohort 9B, 19 further ERY974 administrations (0.54 μg/kg) after Tocilizumab 4 mg/kg) was “Absent”. The “Manifestation of CRS” value ([2]; patient 840020023, cohort 9B, Tocilizumab 4 mg/kg) was “None”, the “Duration from Tocilizumab administration” value ([2]; patient 840060002, cohort 8B, CRS Grade 2, Tocilizumab 8 mg/kg, same day as CRS manifestation) was 2 days and the “Presence or absence of CRS recurrence” value ([2]; patient 840060002, cohort 8B, 9 further ERY974 administrations (0.36 μg/kg) after Tocilizumab 8 mg/kg) was “Absent”. The “Manifestation of CRS” value ([2]; patient 840060002, cohort 8B, Tocilizumab 8 mg/kg) was “None”, the “Serum concentration of Tocilizumab required for binding to 80% or more of IL-6R” value (IL-6R [3]) was no less than 10800 ng/mL and the “Estimated effective serum concentration (target concentration) of Tocilizumab” value [4] was 10 µg/mL.
